Assay [1] has as its system mitochondrial transcription (7S RNA) in HeLa cells. The experiment in a line: Quantitative real time-PCR assay of inhibition of mitochondrial transcription (7S RNA) in HeLa cells. It counts as cell-based. The following applies: Homo sapiens, 4 h incubation, Example 5, read-out: cellular qPCR assay IMT (IC-50). The procedure:
Quantitative real-time PCR (qRT-PCR), based on the TaqMan™ (Thermo Fisher Scientific, Waltham Mass.) technology, was carried out essentially as described in (Heid et al. 1996). HeLa cells were plated one day before compound treatment in RPMI medium supplemented with 10% Fetal Calf Serum and 2 mM L-glutamine. Cells were incubated with dilution series of compounds or vehicle (DMSO) for 4 h, prior to harvest and extraction of the RNA using the RNeasy Mini Kit (Qiagen, Hilden D), according to the manufacturer's instructions. RNA concentrations were measured spectroscopically, using a NanoDrop-2000 (Thermo Fisher Scientific, Waltham Mass.) and normalized prior to cDNA synthesis, using a ‘High-Capacity cDNA Reverse Transcription Kit’ (Thermo Fisher Scientific, Waltham Mass.). qRT-PCR was carried out using the ‘TaqMan Fast Advance Master Mix’ (Thermo Fisher Scientific, Waltham Mass.) on a 7500 Fast Real-Time PCR machine (Applied Biosystems, Foster City Calif.)
For these measurements, three genes were used to compare the effect of the scrutinized compounds in relation to their concentration. The POLRMT-gene was used to detect potential influences on nuclear transcription. Mitochondrial transcription in vivo was monitored by measurements 7S RNA. The TBP (TATA-box binding protein) gene was employed as the control (housekeeping gene) during qRT-PCR. The short-lived mitochondrial 7S RNA, which is not post-transcriptionally stabilized, allowed us to monitor rapid changes in mitochondrial transcription activity following compound addition. Biological triplicates were analyzed using the comparative CT Method (ΔΔCt) method (Bubner et al. 2004) and reported as Rq % values (Rq=Relative quantification=2-ΔΔCt).

Assay [2] deals with mitochondrial RNA-polymerase (POLRMT) (Mus musculus, UniProt Q8BKF1). The experiment in a line: Homogeneous TR-FRET assay for mitochondrial transcription activity. Conditions: homogeneous TR-FRET assay according to Example 4; read-out: mitochondrial transcription activity (IC-50). The assay is classed as biochemical. In short, it runs like this: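 Mouse POLRMT with TFAM and TFB2M transcribes linearized pUC-LSP template after 10 min compound preincubation (10 μM final or dilution series), started with 500 μM each nucleotide, 2 h at RT. EDTA/high-salt stop; RNA product detected by hybridized Eu/ATTO647N probe pair, TR-FRET read at 665 nm (340 nm excitation).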
Sequence of mitochondrial RNA-polymerase (POLRMT) (Q8BKF1 42-1207): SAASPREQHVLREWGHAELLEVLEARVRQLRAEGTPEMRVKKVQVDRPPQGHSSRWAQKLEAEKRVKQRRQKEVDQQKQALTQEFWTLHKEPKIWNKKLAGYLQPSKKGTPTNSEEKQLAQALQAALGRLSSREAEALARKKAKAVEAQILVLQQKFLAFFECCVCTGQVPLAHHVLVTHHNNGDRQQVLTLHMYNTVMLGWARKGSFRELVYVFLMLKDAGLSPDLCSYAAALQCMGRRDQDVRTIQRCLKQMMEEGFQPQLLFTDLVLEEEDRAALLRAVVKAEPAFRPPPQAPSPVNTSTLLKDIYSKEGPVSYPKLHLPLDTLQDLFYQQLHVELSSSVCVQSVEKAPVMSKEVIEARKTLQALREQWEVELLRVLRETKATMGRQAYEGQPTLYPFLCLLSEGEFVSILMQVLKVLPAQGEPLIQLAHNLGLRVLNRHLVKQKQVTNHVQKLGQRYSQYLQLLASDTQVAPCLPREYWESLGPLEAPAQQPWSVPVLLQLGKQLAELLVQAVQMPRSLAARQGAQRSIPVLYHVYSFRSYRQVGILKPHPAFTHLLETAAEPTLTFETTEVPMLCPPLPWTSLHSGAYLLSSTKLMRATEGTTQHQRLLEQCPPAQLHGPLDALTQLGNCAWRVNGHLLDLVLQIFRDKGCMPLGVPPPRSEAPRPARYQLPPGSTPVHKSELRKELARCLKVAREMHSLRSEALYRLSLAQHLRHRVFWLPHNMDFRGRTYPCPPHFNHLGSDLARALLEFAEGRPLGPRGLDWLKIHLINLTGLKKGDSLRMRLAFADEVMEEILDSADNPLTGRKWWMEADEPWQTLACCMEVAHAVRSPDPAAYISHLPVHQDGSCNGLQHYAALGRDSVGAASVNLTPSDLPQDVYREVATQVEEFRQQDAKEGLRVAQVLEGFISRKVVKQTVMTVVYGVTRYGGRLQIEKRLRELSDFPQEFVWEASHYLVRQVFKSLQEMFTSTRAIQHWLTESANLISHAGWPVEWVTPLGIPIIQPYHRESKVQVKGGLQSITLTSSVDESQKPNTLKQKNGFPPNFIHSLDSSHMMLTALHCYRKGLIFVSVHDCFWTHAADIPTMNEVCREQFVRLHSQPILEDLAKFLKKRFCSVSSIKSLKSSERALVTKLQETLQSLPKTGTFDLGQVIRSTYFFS
For orientation: In TR-FRET formats the signal depends on donor and acceptor labels being close together.

Bounds are passed on as bounds.

This passage reports IC50 results from patent US10703735B2, “4-phenyl-coumarin derivatives, processes for their preparation and uses thereof for the treatment of cancer” (Lead Discovery Center GmbH, priority 2018, dated 2020).

Take `CC(Oc1ccc2c(-c3ccccc3)cc(=O)oc2c1)C(=O)OC(C)(C)C` (stereo not shown) [Compound 1, tert-butyl 2-(2-oxo-4-phenyl-chromen-7-yl)oxypropanoate]: the results for the IC50 in assay [1] and in assay [2] were less than 10 nM and 100 to 1000 nM, respectively. The matching figures for `CCNC(=O)C(C)Oc1ccc2c(-c3ccccc3)cc(=O)oc2c1` (stereo not shown) [Compound 30, N-ethyl-2-(2-oxo-4-phenyl-chromen-7-yl)oxy-propanamide]: 50 to 500 nM and 1000 to 10000 nM. Consider `CC(C)NC(=O)C(C)Oc1ccc2c(-c3ccccc3)cc(=O)oc2c1` (stereo not shown) [Compound 12, N-isopropyl-2-(2-oxo-4-phenyl-chromen-7-yl)oxy-propanamide], for which the IC50 in assay [1] is 50 to 500 nM; in assay [2], 100 to 1000 nM. For the compound `C[C@@H](Oc1ccc2c(-c3ccccc3)cc(=O)oc2c1)C(=O)N(C)C` [Compound 34, (2R)-N,N-dimethyl-2-(2-oxo-4-phenyl-chromen-7-yl)oxy-propanamide], the IC50 in assay [1] was in the range of 10 to 50 nM; in assay [2] it was 100 to 1000 nM. `CC(C)OC(=O)C(C)Oc1ccc2c(-c3ccccc3)cc(=O)oc2c1` (stereo not shown) [Compound 53, isopropyl 2-(2-oxo-4-phenyl-chromen-7-yl)oxypropanoate]: the IC50 was less than 10 nM in assay [1] and 20 to 100 nM in assay [2]. Regarding `CCOC(=O)[C@@H](C)Oc1ccc2c(-c3ccccc3)cc(=O)oc2c1` [Compound 33, ethyl (2R)-2-(2-oxo-4-phenyl-chromen-7-yl)oxypropanoate], the values for the IC50 in assay [1] and in assay [2] were less than 10 nM and 100 to 1000 nM, respectively. Consider `CC(Oc1ccc2c(-c3ccccc3)cc(=O)oc2c1)C(=O)N1CCCC1` (stereo not shown) [Compound 31, 7-(1-methyl-2-oxo-2-pyrrolidin-1-yl-ethoxy)-4-phenyl-chromen-2-one], for which the IC50 is 50 to 500 nM in assay [1] and 100 to 1000 nM in assay [2]. With `CCOC(=O)C(C)Oc1ccc2c(-c3ccccc3)cc(=O)oc2c1` (stereo not shown) [Compound 52, ethyl 2-(2-oxo-4-phenyl-chromen-7-yl)oxypropanoate], the IC50 fell in the range of 50 to 500 nM in assay [1] and 100 to 1000 nM in assay [2]. On to `CCOC(=O)C(C)Oc1ccc2c(-c3cccc(F)c3)cc(=O)oc2c1` (stereo not shown) [Compound 7, ethyl 2-[4-(3-fluorophenyl)-2-oxo-chromen-7-yl]oxypropanoate], for which the IC50 lay in the range of 10 to 50 nM in assay [1] and 20 to 100 nM in assay [2].

With `CC(Oc1ccc2c(-c3ccccc3)cc(=O)oc2c1)C(=O)N1CCCC(C#N)C1` (stereo not shown) [Compound 19, 1-[2-(2-oxo-4-phenyl-chromen-7-yl)oxypropanoyl]piperidine-3-carbonitrile], the IC50 in assay [1] is less than 10 nM; in assay [2], less than 20 nM. Turning to `CCOC(=O)C(C)Oc1ccc2c(-c3ccc(OC)cc3)cc(=O)oc2c1` (stereo not shown) [Compound 65, ethyl 2-[4-(4-methoxyphenyl)-2-oxo-chromen-7-yl]oxypropanoate], the IC50 in assay [1] was in the range of 500 to 10000 nM; in assay [2], 1000 to 10000 nM. On the same counts, the results for `COC(=O)C1CCCN(C(=O)C(C)Oc2ccc3c(-c4ccccc4)cc(=O)oc3c2)C1` (stereo not shown) [Compound 15, methyl 1-[2-(2-oxo-4-phenyl-chromen-7-yl)oxypropanoyl]piperidine-3-carboxylate] are 50 to 500 nM and 100 to 1000 nM. For `CCOC(=O)COc1cc2oc(=O)cc(-c3ccccc3)c2cc1Cl` [Compound 49, ethyl 2-(6-chloro-2-oxo-4-phenyl-chromen-7-yl)oxyacetate], in assay [2], the IC50 fell in the range of 100 to 1000 nM.

Regarding `CC(C)COC(=O)COc1ccc2c(-c3ccccc3)cc(=O)oc2c1` [Compound 77, isobutyl 2-(2-oxo-4-phenyl-chromen-7-yl)oxyacetate], the IC50 in assay [2] lay in the range of 1000 to 10000 nM.

Consider `C[C@@H](Oc1ccc2c(-c3ccccc3)cc(=O)oc2c1)C(=O)O` [Compound 66, (2R)-2-(2-oxo-4-phenyl-chromen-7-yl)oxypropanoic acid], for which the IC50 in assay [2] is 1000 to 10000 nM. As for `O=C(COc1cc2oc(=O)cc(-c3ccccc3)c2cc1Cl)NC1C=CS(=O)(=O)C1` (stereo not shown) [Compound 95, 2-(6-chloro-2-oxo-4-phenyl-chromen-7-yl)oxy-N-(1,1-dioxo-2,3-dihydrothiophen-3-yl)acetamide], in assay [2], the IC50 lay within 1000 to 10000 nM.

With `CC(Oc1ccc2c(-c3ccccc3)cc(=O)oc2c1)C(=O)N(C)C` (stereo not shown) [Compound 2, N,N-dimethyl-2-(2-oxo-4-phenyl-chromen-7-yl)oxy-propanamide], the IC50 in assay [1] is 10 to 50 nM; in assay [2] it was 100 to 1000 nM. `CC(Oc1ccc2c(-c3ccccc3)cc(=O)oc2c1)C(=O)N1CCC(C(=O)O)CC1` (stereo not shown) [Compound 69, 1-[2-(2-oxo-4-phenyl-chromen-7-yl)oxypropanoyl]piperidine-4-carboxylic acid]: in assay [2], the IC50 lay within 1000 to 10000 nM. For the compound `CCOC(=O)C(C)(C)Oc1ccc2c(-c3ccccc3)cc(=O)oc2c1` [Compound 32, ethyl 2-methyl-2-(2-oxo-4-phenyl-chromen-7-yl)oxy-propanoate], the IC50 fell in the range of 10 to 50 nM in assay [1] and 100 to 1000 nM in assay [2]. `CCOC(=O)C(CC)Oc1ccc2c(-c3ccccc3)cc(=O)oc2c1` (stereo not shown) [Compound 71, ethyl 2-(2-oxo-4-phenyl-chromen-7-yl)oxybutanoate]: the IC50 in assay [2] fell in the range of 1000 to 10000 nM.
